These results are taken from paper PMC9936582, “Sulfamate Acetamides as Self-Immolative Electrophiles for Covalent Ligand-Directed Release Chemistry” (Journal of the American Chemical Society, 2023).

“Also recorded” adds a separate entry of the source.

Data set [1] deals with T1, BTK (Homo sapiens, UniProt Q06187). Briefly: In vitro kinase activity assay (Nanosyn). The note with it: for BTK inhibition (in words): 0.5 nM BTK, 5 μM ATP.
Target sequence in this assay (Q06187 whole entry, the tested form may be a part): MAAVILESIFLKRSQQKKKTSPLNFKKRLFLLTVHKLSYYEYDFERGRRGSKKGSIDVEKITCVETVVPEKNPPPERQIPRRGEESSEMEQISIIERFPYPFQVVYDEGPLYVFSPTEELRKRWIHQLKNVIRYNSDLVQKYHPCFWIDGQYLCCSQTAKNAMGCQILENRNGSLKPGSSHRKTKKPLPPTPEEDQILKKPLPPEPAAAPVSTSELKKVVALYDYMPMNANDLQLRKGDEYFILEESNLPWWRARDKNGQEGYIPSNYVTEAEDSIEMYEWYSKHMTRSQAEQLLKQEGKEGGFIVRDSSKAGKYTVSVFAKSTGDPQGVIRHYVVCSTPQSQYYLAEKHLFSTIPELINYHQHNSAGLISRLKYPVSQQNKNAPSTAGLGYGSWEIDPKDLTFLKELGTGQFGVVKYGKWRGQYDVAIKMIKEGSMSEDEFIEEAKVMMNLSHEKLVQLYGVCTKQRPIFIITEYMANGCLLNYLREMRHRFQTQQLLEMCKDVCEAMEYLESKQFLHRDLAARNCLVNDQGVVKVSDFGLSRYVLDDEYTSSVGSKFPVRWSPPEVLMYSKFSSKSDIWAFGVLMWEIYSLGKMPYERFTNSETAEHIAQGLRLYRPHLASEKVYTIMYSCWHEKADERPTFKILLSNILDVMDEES
Data set [2] has as its target T1, BTK. The data set can be described thus: Intact protein mass spectrometry labeling of recombinant BTK. The arrangement: BTK kinase domain was expressed and purified as previously reported; made in house. The note with it: 2 μM BTK, 2 μM compound, pH 8, 25 °C. The format is binding. The procedure:
BTK kinase domain was expressed and purified as previously reported.[66] Binding experiments were performed in Tris 20 mM (pH 8.0) and 50 mM NaCl at room temperature.
(§1) The reaction mixtures, at room temperature for various times, were injected into the LC/MS. For data analysis, the raw spectra were deconvoluted using a 20,000:40,000 Da (For Pin1, 10,000:30,000) window and 1 Da resolution. The labeling percentage for a compound was determined as the labeling of a specific compound (alone or together with other compounds) divided by the overall detected protein species.
Target sequence in this assay (Q06187 402-655 limits assumed): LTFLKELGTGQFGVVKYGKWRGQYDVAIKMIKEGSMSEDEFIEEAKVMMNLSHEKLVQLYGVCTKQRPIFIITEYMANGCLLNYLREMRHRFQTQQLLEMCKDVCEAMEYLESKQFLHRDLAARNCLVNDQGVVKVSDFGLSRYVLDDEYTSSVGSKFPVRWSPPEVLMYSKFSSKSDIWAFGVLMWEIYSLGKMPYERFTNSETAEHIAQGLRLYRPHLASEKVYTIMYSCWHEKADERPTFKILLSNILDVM

A further data set addresses T2, Pin1 (Homo sapiens, UniProt Q13526).
T2 construct: The catalytic domain of Pin1 (2 μM) in […] and 75 mM NaCl (pH 7.5) was incubated; made in house
Briefly: Intact protein MS labeling of Pin1. The following applies: 2 μM Pin1, 2 μM compound, pH 7.5, 1 h, 25 °C. Format: binding. The procedure:
Initially, we incubated these compounds (4a–4g; 2 μM) with Pin1 (2 μM; 50 mM Tris buffer; pH 7.5, 1 h; 25 °C) to check covalent labeling by intact protein MS (Figure 5B,C; Figure S23). Under these conditions, sulfopin labeled 59% as previously reported;[38] the sulfonate (4a) labeled 18%, whereas alkyl sulfamates (4b and 4c) labeled 16 and 56%, respectively. […] We have previously reported that replacing the tert-butyl group in sulfopin by a cyclohexyl increases the labeling along with intrinsic thiol reactivity. Compound 4g contains a cyclohexyl group instead of the tert-butyl and a phenyl sulfamate electrophile and was able to label >95% of Pin1 under these conditions.
Pin1 was expressed and purified as previously reported.[38] The catalytic domain of Pin1 (2 μM) in […] and 75 mM NaCl (pH 7.5) was incubated with 2 μM sulfopin sulfamate (4a–4g) for 1 h at 25 °C.
as §1

Data set [3] in a line: GSH consumption assay (LC/MS). The following applies: for covalent bond formation with GSH: assay conditions or temperatures up to 37 °C for 24 h; for reactivity towards GSH relative to chloroacetamide (1a): 5 mM GSH, 200 μM electrophile, pH 8, 14 °C.
Experimental: A sample from the reaction mixture was injected to an LC/MS every hour, and we quantified the decrease in starting material over the course of the reaction.
All solvents were bubbled with argon. Reaction mixtures were kept at 10 °C. Every 1 h, 5 μL from the reaction mixture were injected into the LC/MS. The reaction was followed by the peak area of the electrophile normalized by the area of the 4-nitrocyano benzene (i.e., by the disappearance of the starting material). The natural logarithm of the results was fitted to linear regression, and t1/2 was calculated as t1/2 = ln 2/–slope.
Data set [4] is described as follows: DTNB thiol reactivity assay. The format is physicochemical. Here is the method:
The compound 5,5′-dithio-bis(2-nitrobenzoic acid) (DTNB; 50 μM) was incubated with 200 μM tris(2-carboxyethyl)phosphine (TCEP) in 20 mM sodium phosphate buffer (pH 7.4) and 150 mM NaCl for 5 min at room temperature to obtain TNB^–2. […] UV absorbance was acquired every 15 min for 7 h. The assay was performed in a 384-well plate using a Tecan Spark 10 M plate reader. […] Compounds were measured in triplicate. The data were fitted to a second-order reaction equation such that the rate constant (K) is the slope of ln([A][B0]/[B][A0]), where [A0] and [B0] are the initial concentrations of the compound (200 μM) and TNB^–2 (100 μM), respectively, and [A] and [B] are the remaining concentrations as a function of time as deduced from spectrometric measurements. Linear regression using Prism was performed to fit the rate against the first 7 h of measurements.

A short description of data set [5]: Glutamic acid reactivity of model compounds (LC/MS). The note with it: pH 8, 37 °C; 4 days.
A short description of a further data set: Buffer stability assay. Format: physicochemical.
For data set [6], the target named is T1, BTK. The data set can be described thus: BTK activity (autophosphorylation) in Mino cells, Western blot. Format: cell-based. Further details: endogenous in cells; host or cells: Mino cells. The procedure: To assess the cellular efficacy of these compounds, we followed the inhibition of BTK autophosphorylation in Mino cells. After 1 h of pre-incubation with the inhibitors and B-cell activation with an anti-IgM antibody, BTK autophosphorylation was followed by Western blot.
The cell pellets were subjected to immunoblotting, and Western blots were performed for p-BTK, BTK, and β-actin.
Cell pellets were washed with ice-cold PBS and lysed using RIPA buffer (Sigma, R0278). […] Samples containing 50 μg total protein were prepared with 4× LDS sample buffer (NuPAGE, Thermo Scientific, NP0007) and 20 mM DTT, which were then resolved on a 4–20% Bis–Tris gel (GeneScript SurePAGE, M00657). […] An EZ-ECL Kit (Biological Industries, 20-500-1000) was used to detect HRP activity.
Target sequence in this assay (Q06187 whole entry, the tested form may be a part): as the sequence (Q06187 whole entry, the tested form may be a part) above

Data set [7] in a line: Metabolic stability of sulfopin analogues in liver microsomes. Format: in vitro ADME. The procedure: Next, we examined the buffer stability of the sulfopin sulfamate acetamides in PBS buffer (pH 8; 37 °C). Similar to the model compounds, the chloroacetamide (sulfopin) and sulfonate (4a) warheads show 30 and 15% hydrolysis after 2 days, respectively (Figure S26).
Figure S27: Sulfopin sulfamates show high metabolic stability: Compounds (Sulfopin, 4d, and 4g) were incubated
in liver microsomes and injected to LC/MS/MS at indicated time points. The peak intensities of the compounds were […]
(Microsomes from liver hold many membrane-bound enzymes, among them those of drug oxidation.)

As a reminder, the IC50 is the concentration needed to halve the response being measured. Read a low IC50 as higher potency.

T2 sequence (Q13526 52-163 limits assumed): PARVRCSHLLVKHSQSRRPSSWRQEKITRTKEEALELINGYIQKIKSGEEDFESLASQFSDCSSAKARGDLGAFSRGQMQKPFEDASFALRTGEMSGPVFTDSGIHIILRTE
Experimental for Buffer stability assay: Reaction mixtures were kept at 37 °C with shaking. After 4 days (unless otherwise mentioned), 5 μL from the reaction mixture were injected into the LC/MS to check the stability of the compounds.

For `Nc1ncnc2c1c(-c1ccc(Oc3ccccc3)cc1)nn2[C@@H]1CCCN(C(=O)CS(=O)(=O)c2ccccc2)C1` [3g], at BTK [1], the IC50 is 500 nM. Moreover, on BTK [2], the “covalent reaction with BTK” value was “no labeling; also recorded: failed to react covalently with BTK”. In the case of `CNS(=O)(=O)OCC(=O)N(CC(C)(C)C)C1CCS(=O)(=O)C1` (stereo not drawn) [4b], the “labeling of Pin1” value at Pin1 is 16%. In the case of `CS(=O)(=O)CC(=O)NCc1ccccc1` [1i], the “covalent bond formation with GSH” value in [3] is reported as “did not form a covalent bond with GSH”. As for `CC(C)(C)CN(C(=O)COS(=O)(=O)Nc1ccc(Br)cc1)C1CCS(=O)(=O)C1` (stereo not drawn) [4e], in data set [4], the “thiol reactivity compared to sulfopin” value is “lower thiol reactivity than sulfopin”. At Pin1, the “labeling of Pin1” value is on record as over 90%. Consider `CS(=O)(=O)CC(=O)N1CCC[C@@H](n2nc(-c3ccc(Oc4ccccc4)cc3)c3c(N)ncnc32)C1` [3f], for which the “covalent reaction with BTK” value on BTK [2] was “no labeling; also recorded: failed to react covalently with BTK”. For the compound `CNS(=O)(=O)OCC(=O)NCc1ccccc1` [1d], the “reactivity towards GSH relative to chloroacetamide (1a)” value in [3] is reported as “an order of magnitude less reactivity”. The “reaction with glutamic acid” value in data set [5] is “did not react”. Take `CC(C)(C)CN(C(=O)COS(=O)(=O)NCc1ccccc1)C1CCS(=O)(=O)C1` (stereo not drawn) [4c]: the “thiol reactivity compared to sulfopin” value in data set [4] is given as “lower thiol reactivity than sulfopin”. Besides, the “labeling of Pin1” value on Pin1 came to 56%. As to `CC(C)(C)CN(C(=O)COS(C)(=O)=O)C1CCS(=O)(=O)C1` (stereo not drawn) [4a], on Pin1, the “labeling of Pin1” value was determined as 18%. The “hydrolysis (buffer stability, sulfopin analogues)” value in “Buffer stability assay” (200 μM, PBS buffer pH 8, 37 °C for four days) turned out to be 15%; in “Buffer stability assay” (PBS buffer pH 8, 37 °C, after 2 days), 15%. As for `O=C(COS(=O)(=O)NCc1ccccc1)NCc1ccccc1` [1e], the “reactivity towards GSH relative to chloroacetamide (1a)” value in data set [3] is given as “an order of magnitude less reactivity”. Besides, in [5], the “reaction with glutamic acid” value is on record as “did not react”. For the compound `Nc1ncnc2c1c(-c1ccc(Oc3ccccc3)cc1)nn2[C@@H]1CCCN(C(=O)COS(=O)(=O)Nc2ccccc2)C1` [3e], at BTK [1], the IC50 is 100 nM.

`Cc1ccc(NS(=O)(=O)OCC(=O)N(CC(C)(C)C)C2CCS(=O)(=O)C2)cc1` (stereo not drawn) [4f]: the “labeling of Pin1” value at Pin1 is on record as “less than 30%”. As for `CS(=O)(=O)OCC(=O)N1CCC[C@@H](n2nc(-c3ccc(Oc4ccccc4)cc3)c3c(N)ncnc32)C1` [3b], the “BTK inhibition (in words)” value at BTK [1] was “potent BTK inhibition”. For the same compound, on BTK [6] (anti-IgM activation, Western blot normalized to β-actin), the IC50 amounted to 6 nM. Besides, on BTK [2] (within 10 min), the “labeling of BTK” value is listed as “more than 95%”. `O=C(CS(=O)(=O)c1ccccc1)NCc1ccccc1` [1j]: the “covalent bond formation with GSH” value in [3] is “did not form a covalent bond with GSH”. On to `O=C(COS(=O)(=O)Nc1ccccc1)N(CC1CCCCC1)C1CCS(=O)(=O)C1` (stereo not drawn) [4g], for which the “thiol reactivity compared to sulfopin” value in [4] is on record as “slightly higher reactivity”. In addition, the “labeling of Pin1” value on Pin1 was over 95%. In addition, in data set [7], the “metabolic stability (in words)” value is “good metabolic stability”. For `Nc1ncnc2c1c(-c1ccc(Oc3ccccc3)cc1)nn2[C@@H]1CCCN(C(=O)CCl)C1` [3a], the “BTK inhibition (in words)” value on BTK [1] is “potent BTK inhibition”. At BTK [6], the “less potency in cellular pBTK inhibition” value stood at 20 fold.
